Experimental data published in doi:10.1101/2024.07.04.602053v1, “Evidence for low affinity of GABA at the vesicular monoamine transporter VMAT2 – implications for transmitter co-release from dopamine neurons” (biorxiv, 2024).
pIC50: −log10 of the molar value.

Target: T1, human VMAT2-eGFP (HEK-293-VMAT2:eGFP) (Homo sapiens, UniProt Q05940)
T1 construct: gene SLC18A2
Test: inhibition of [3H]dopamine uptake, digitonin-permeabilized cells
Type: cell-based

T1 sequence (Q05940 whole entry): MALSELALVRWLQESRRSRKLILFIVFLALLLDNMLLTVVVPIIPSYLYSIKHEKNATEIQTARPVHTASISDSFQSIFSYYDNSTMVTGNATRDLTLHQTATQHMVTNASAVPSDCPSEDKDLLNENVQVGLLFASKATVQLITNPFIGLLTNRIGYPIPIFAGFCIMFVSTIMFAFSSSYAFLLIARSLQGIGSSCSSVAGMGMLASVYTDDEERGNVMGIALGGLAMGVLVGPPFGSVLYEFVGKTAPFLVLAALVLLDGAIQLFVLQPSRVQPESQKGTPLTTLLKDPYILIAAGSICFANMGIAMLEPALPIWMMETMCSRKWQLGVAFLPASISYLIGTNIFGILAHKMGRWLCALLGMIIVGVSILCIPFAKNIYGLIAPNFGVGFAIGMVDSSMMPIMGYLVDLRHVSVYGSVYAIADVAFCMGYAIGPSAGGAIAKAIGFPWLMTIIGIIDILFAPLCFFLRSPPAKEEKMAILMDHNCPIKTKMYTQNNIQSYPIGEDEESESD

| Compound | pIC50 |
| --- | --- |
| NCCc1ccc(O)c(O)c1 [dopamine] | 5.31 |
| COc1cc2c(cc1OC)C1CC(=O)C(CC(C)C)CN1CC2 (centres unmarked) [tetrabenazine] | 7.54 |
